{
  "source": "patent US6472213B1",
  "about": "“Shuttle vectors for the introduction of DNA into mycobacteria and utilization of such bacteria as vaccines” (Institut National de la Sante et de la Recherche Medicale …, priority 1994, dated 2002)",
  "assay_type_in_all_cases": "cell-based, M. smegmatis, M. bovis BCG, M. tuberculosis",
  "key": {"[1]": {"system": "mycobacteria carrying the plasmid pMR001"}, "[2]": {"system": "non-transformed control mycobacteria"}, "[3]": {"system": "pVN2-carrying mycobacteria"}},
  "data": [
    {"smiles": "[Cl][Hg][Cl]", "note": "[HgCl2]", "values": [
      {"measurement": "Phenotypes of resistance to mercury", "setting": "[1]", "value": "R"},
      {"measurement": "Phenotypes of resistance to mercury", "setting": "[2]", "value": "S"},
      {"measurement": "Phenotypes of resistance to mercury", "setting": "[3]", "value": "R"},
      {"measurement": "level of resistance", "setting": "[3]", "value": 40, "unit": "mg/mL"}
    ]}
  ]
}
